Five compounds from US20060004088A1, “Furan derivatives for preventing and curing osteoporosis and pharmaceutical compositions containing the same” (OCT INC., priority 2002, published 2006) can be followed below.

Molecules are shown by their SMILES.

In the test the test system is osteoclast pregenitor cells. In words: Inhibition rates of furan derivatives versus osteoclast formation (TRAP staining). The settings on record: TRAP-positive multinucleated cells, untreated control set as 100%. Type of test: cell-based, mice. The procedure, abridged: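 Non-adherent mouse bone-marrow osteoclast precursors cultured 8 days with 20 ng/ml M-CSF and 30 ng/ml RANKL in presence of compound. TRAP-positive cells with ≥3 nuclei counted; inhibition expressed relative to untreated control set at 100%.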

Turning to `O=C(c1ccc(COc2ccccc2Br)o1)N1CCCCCC1` [Compound 128], the “Inhibition rate against osteoclast formation, %” value (shortened to “Inhibition rate … %”) is reported as 6.54% (0.1 μM), 0% (1 μM) and 97.65% (10 μM).
In the case of `O=Cc1ccc(COC(=O)Nc2ccc(Br)cc2)o1` [Compound 50], the “Inhibition rate … %” value (0.1 μM) came to 0%; the “Inhibition rate … %” value (1 μM) is listed as 10%; the “Inhibition rate … %” value (10 μM) stood at 0%.
Consider `CCCCNC(=O)OCc1ccc(C=O)o1` [Compound 53], for which the “Inhibition rate … %” value (0.1 μM) is 0%; the “Inhibition rate … %” value (1 μM) was 10%; the “Inhibition rate … %” value (10 μM) is 36.67%.
For the compound `COc1ccccc1NC(=O)c1ccc(COc2cc(C)ccc2C)o1` [Compound 157], the “Inhibition rate … %” value came out at 4.87% (0.1 μM), 10.71% (1 μM) and 97.46% (10 μM).
For `COc1cc([N+](=O)[O-])ccc1NC(=O)c1ccc(COc2ccc(Cl)cc2)o1` [Compound 182] the same measures were 0%, 0% and 4.34%.
